Values joined by “and” are separate entries in the source; they are usually repeats but may differ in a detail not shown here. Equal values may be shown once. Read-outs that look alike come from different tables or passages of the source.
Key:
[1] = log P by HPLC on reversed phase columns (EEC directive 79/831 Annex V.A8); type: physicochemical
[2] = system: Puccinia recondita; experiment: In vivo preventive test on Puccinia recondita (brown rust on wheat); conditions: preventive spray, wheat plants, grading 12 days after contamination
Description: Plants, used as controls, are treated with the mixture of acetone/tween/DMSO/water not containing the active material. After 24 hours, the plants are contaminated by spraying the leaves with an aqueous suspension of Puccinia […] spores (100 000 spores per ml). […] Grading (% of efficacy) is carried out 12 days after the contamination, in comparison with the control plants.

[3] = system: Uromyces appendiculatus; experiment: In vivo preventive test on Uromyces appendiculatus (bean rust); conditions: preventive spray, bean plants, grading 11 days after contamination
Description: Bean plants (“Saxa” variety), sown in starter cups on a 50/50 peat soil-pozzolana substrate and grown at 24° C., are treated at the 2-leaf stage (9 cm height) by spraying with the active ingredient prepared as described above. Plants, used as controls, are treated with the mixture of acetone/tween/DMSO/water not containing the active material. After 24 hours, the plants are contaminated by spraying the leaves with an aqueous suspension of Uromyces appendiculatus spores (150 000 spores per ml). […] Grading (% of efficacy) is carried out 11 days after the contamination, in comparison with the control plants.

[4] = Table 2, amines of formula (III-a), method [a]: LC-MS at pH 2.7, 0.1% formic acid in water / acetonitrile
[5] = Table 1, compounds of formula (I), method [a]: LC-MS at pH 2.7, 0.1% formic acid in water / acetonitrile

| SMILES | logP [1, 4] | logP [1, 5] | other results |
| --- | --- | --- | --- |
| Nc1cccc2c1CCC21CC1 [Example III-a-2] | 1.37[a] |  |  |
| CON=C1CCc2c(NC(=O)c3cn(C)nc3C(F)F)cccc21 [Example 23] |  | 2.59[a] | Eff. % ([2]; 500 ppm): 94% |
| CCc1nn(C)cc1C(=O)Nc1cccc2c1C(C)CC21CC1 (stereo not shown) [Example 51] |  | 2.99[a] |  |
| CC1CCc2c(NC(=O)c3cn(C)nc3C(F)F)cccc21 (stereo not shown) [Example 50] |  | 3.01[a] | Eff. % ([2]; 100 ppm): 78% |
| CCC1(C)CCc2c(N)cccc21 (stereo not shown) [Example III-a-17] | 1.88[a] |  |  |
| CC(C)CC1CC(C)c2c(N)cccc21 (stereo not shown) [Example III-a-23] | 3.42[a] |  |  |
| CCCON=C1CCc2c(N)cccc21.Cl [III-a-7] | 2.26[a] |  |  |
| CC1CC2(CC2)c2cccc(NC(=O)c3cn(C)nc3C(F)(F)F)c21 (stereo not shown) [Example 10] |  | 3.35[a] | Eff. % ([2]; 500 ppm): 100%; Eff. % ([3]; 500 ppm): 99% |
| Cc1nn(C)c(Cl)c1C(=O)Nc1cccc2c1C(C)CC21CC1 (stereo not shown) [Example 47] |  | 3.44[a] | Eff. % ([2]; 100 ppm): 95%; Eff. % ([3]; 100 ppm): 100% |
| Cc1nn(C)c(C)c1C(=O)Nc1cccc2c1C(C)CC2C(C)(C)C (stereo not shown) [Example 16] |  | 4.13[a] | Eff. % ([2]; 500 ppm): 98%; Eff. % ([3]; 500 ppm): 100% |
| Cc1nn(C)c(C)c1C(=S)Nc1cccc2c1C(C)CC21CC1 (stereo not shown) [Example 39, 1,3,5-trimethyl-N-(3′-methyl-2′,3′-dihydrospiro[cyclopropane-1,1′-inden]-4′-yl)-1H-pyrazole-4-carbothioamide] |  |  | chromatographic logP ([1]; pH 2.7): 3.06; Eff. % ([2]; 500 ppm): 89%; Eff. % ([3]; 500 ppm): 100% |
| CC1CC2(CCCC2)c2cccc(NC(=O)c3cn(C)nc3C(F)F)c21 (stereo not shown) [Example 49] |  | 4.31[a] | Eff. % ([2]; 100 ppm): 89% |
| CC1CC(C(C)C)c2cccc(N)c21 (stereo not shown) [Example III-a-11] | 2.73[a] |  |  |
| CC(C)CC1CCc2c(N)cccc21 (stereo not shown) [Example III-a-14] | 2.64[a] |  |  |
| CC(C)(C)C1CCc2c(N)cccc21 (stereo not shown) [Example III-a-21] | 2.4[a] |  |  |
| CCc1c(C(=O)Nc2cccc3c2C(C)CC32CC2)cnn1C (stereo not shown) [Example 54] |  | 2.99[a] |  |
| CCCON=C1CC(C)c2c(N)cccc21.Cl (stereo not shown) [Example III-a-18] | 2.78[a] |  |  |

| SMILES | logP [1, 4] | logP [1, 5] | other results |
| --- | --- | --- | --- |
| Cn1cc(C(=O)Nc2cccc3c2C(C)(C)CC3)c(C(F)F)n1 [Example 36] |  | 2.8[a] |  |
| Cn1cc(C(=O)Nc2cccc3c2CCC3O)c(C(F)F)n1 (stereo not shown) [Example 37] |  | 1.61[a] |  |
| CC1CC(CC(C)(C)C)c2cccc(N)c21 (stereo not shown) [Example III-a-22] | 3.83[a] |  |  |
| Cc1nn(C)c(F)c1C(=O)Nc1cccc2c1CCC21CC1 [Example 15] |  |  | Eff. % ([2]; 500 ppm): 94%; Eff. % ([3]; 500 ppm): 100% |
| CC1CC2(CC2)c2cccc(NC(=O)c3c(C(F)(F)F)nn(C)c3F)c21 (stereo not shown) [Example 55] |  | 3.72[a] | Eff. % ([2]; 100 ppm): 85% |
| CC1CC2(CC2)c2cccc(N)c21 (stereo not shown) [Example III-a-16, 3′-methyl-2′,3′-dihydrospiro[cyclopropane-1,1′-inden]-4′-amine] |  |  | chromatographic logP ([1]; reversed phase HPLC columns, Table 2, amines of formula (III-a), method [a]: LC-MS at pH 2.7, 0.1% formic acid in water / acetonitrile, read-out: logP): 1.93 |
| CCCCON=C1CCc2c(N)cccc21.Cl [III-a-8] | 2.86[a] |  |  |
| CON=C1CCc2c(N)cccc21.Cl [III-a-9] | 1.26[a] |  |  |
| CC1CC(C)c2c(N)cccc21 (stereo not shown) [III-a-15] | 1.76[a] |  |  |
| CCON=C1CC(C)c2c(N)cccc21.Cl (stereo not shown) [Example III-a-19] | 2.26[a] |  |  |
| CC1CC2(CC2(Cl)Cl)c2cccc(N)c21 (mixture of isomers) [Example III-a-1] | 3.04 and 2.94 |  |  |
| CC(C)c1nn(C)cc1C(=O)Nc1cccc2c1C(C)CC21CC1 (stereo not shown) [Example 56] |  | 3.29[a] |  |
| CCON=C1CCc2c(N)cccc21.Cl [III-a-10] | 1.75[a] |  |  |
| CC1CC(C(C)C)c2cccc(N)c21 (stereo not shown) [Example III-a-12] | 2.86[a] |  |  |
| CC1CC2(CC2)c2cccc(NC(=O)c3c(C4CC4)nn(C)c3Cl)c21 (stereo not shown) [Example 45] |  | 4.04[a] |  |
| CON=C1CC(C)c2c(N)cccc21.Cl (stereo not shown) [III-a-20] | 1.76[a] |  |  |

Reference: US9199941B2, “Pyrazole indanyl carboxamides” (BAYER CROPSCIENCE AG, priority 2012, dated 2015)
